This is an account of results in US11028127B2, “Peptides capable of reactivating p53 mutants” (Yeda Research and Development Co. Ltd., priority 2013, dated 2021).

Assay [1] deals with SW-480 colon carcinoma cells (p53 R273H and P309S). Put plainly: Xenograft model, Preclinical Trial #3 (Table 9 experiment 3). It is filed as in vivo, CD1 nude/nude mice. On the procedure: FIGS. 21A, 21B, 21C, 21D and 21E illustrate the in vivo effect of the indicated peptides in a mouse xenograft model. SW-480 colon cancer cells expressing endogenous mutant p53 and stably expressing luciferase were injected into the left hip of CD1 nude/nude mice. When tumors reached visible size, bioluminescence (indicative of the number of cancer cells) was measured with the IVIS200 system.
After observing the highly significant result in the MDA-MB-231 experiment, additional studies were aimed to extend the observation and examine cells from a different origin, harboring a different p53 point mutation. The SW-480 colon carcinoma cell line harbors two endogenous p53 mutations: the R273H and P309S. SW-480 cells were stably infected with the luciferase reporter gene, and 10^6 cells were subcutaneously injected into nude mice. The experiment contained 15 mice that were randomly divided during the experiment into 3 groups: a control group treated with a cocktail of 3 pCAPs previously proven ineffective, a group treated with a cocktail of 3 effective pCAP (250, 308, 325) and finally a group treated with a single peptide, the pCAP-325. The duration of the SW-480 experiment was 42 days from the point of cell implantation. The time line is relative to the first day of treatment which is marked as day 0. FIGS. 21A-E show tumor growth over time in all three groups as measured by live imaging in the IVIS.
4 pre-clinical experiments have already been performed thus far, using the xenograft model of Mut-p53 expressing cells transfected with a luciferase expression vector, allowing tumor monitoring by live imaging. Two experiments were performed with MDA-MB-231 triple negative breast cancer cells (p53 R280K), one experiment used SW-480 colon cancer carcinoma cells (p53 R273H) and another experiment used SKBR3 breast cancer cells (p53 R175H). In each experiment, cells from the corresponding cell line were injected subcutaneously and allowed the formation of well-established tumors visible both by eye and by live imaging (typically 2-3 weeks). A treatment regimen was then administered, composed of intra-tumor injection of either effective lead peptides or control peptides (showing no activity in-vitro) every three days for a period of up to 42 days.

Another assay deals with Mut-p53. Put plainly: Total activity score over combined assays (Table 8). Also noted: scale not given here. The conditions noted are these: for Activity Score: Table 10 summary of activity of the peptides tested; for PCR, activity score / Conformation, activity score: Table 8; for PCR, activity score: head span not shown; for Conformation, activity score: the 14 score columns c4-c17 stand under the heads Conformation, DNA binding, Viability, PCR.

Where no end group is shown, it is not given here. The star is where a group is joined. Myristoyl = CCCCCCCCCCCCCC(=O)*

On to “myr-RRIRDPRILLLHFD (Myristoyl-RRIRDPRILLLHFD) [pCAP-325]”, for which, in assay [1] (Experiment 3, SW-480), the “IVIS average ratio to day 0” value is listed as 4.4%, the Samples average size is listed as 0.12 and the Samples average weight worked out at 0.10. The “Number of total regression” value in assay [1] (Experiment 3, SW-480, 10 samples per group) is 2. In addition, the “log of luminescence intensity mean at day 0” value in assay [1] (day 0 (first day of treatment)) is 8.97. In addition, the “average fold change in tumor size (from luminescence)” value in assay [1] (day 0 to day 35) is 0.043 fold. In assay [1] (day 0 to day 35, inferred from log of luminescence intensity mean), this substance had a tumor size decrease of 95.6%. Also, in assay [1] (day 35), the “log of luminescence intensity mean at day 35” value worked out at 7.61. Also, in assay [1] (p-value <0.05), the “size and weight of extracted tumors compared to control peptides” value is “significantly smaller in size and weight”.
As for pCAP262 (ESKTGHKSEEQRLRRYR), in the assay with Mut-p53, the “Activity Score” value is given as 0.
Take pCAP263 (YDDEHNHHPHHSTHRRR): the “Activity Score” value with Mut-p53 turned out to be 0.
Same read-out and setting: then pCAP264 (RRRREVHTIHQHGIVHSD), with 0; and pCAP265 (EEPDRQPSGKRGGRKRRSR), with 3.
Turning to pCAP266 (HHRLSYFIVRRHSTHASR), the “Activity Score” value in the assay with Mut-p53 was 2.
Consider pCAP267 (KRGGRKRRGGGHRLSYFIRR), for which, in the assay with Mut-p53, the “PCR, activity score” value turned out to be 2; the “Conformation, activity score” value is 3; the “Activity Score” value worked out at 28.
With pCAP268 (TPSYGHTPSHHRRR), in the assay with Mut-p53, the “Conformation, activity score” value is on record as 3 and the “Activity Score” value is on record as 12.
Consider pCAP269 (DEPLPPPERRR), for which the “Activity Score” value in the assay with Mut-p53 amounted to 0.
For pCAP270 (SPHPPY), the “Activity Score” value in the assay on Mut-p53 was determined as 0.
Same read-out and setting: the figure for pCAP271 (SPHPPYSPHPPYSPHPPYP) is 0; for pCAP272 (RRPHNLHHD) it is 0.
The same measure, in the same setting: then pCAP273 (RDFHTIHPSISRR), with 3.
Still for that read-out and setting: the figure for pCAP274 (LRDPHPPERRIR) is 0; for pCAP275 (Myristoyl-MTYSDMPRRIITDEDRRR) it is 6.
Regarding pCAP276 (RRVDIHDGQRR), the “Activity Score” value in the assay on Mut-p53 was 3.
On to pCAP277 (DQPYPHRRIR), for which, in the assay on Mut-p53, the “Activity Score” value is given as 3.
For the substance pCAP278 (RRYDTVIDDIEYRR), in the assay with Mut-p53, the “Activity Score” value is 6.
The same measure, in the same setting: the figure for pCAP279 (RDTIERPEIRR) is 6; for pCAP280 (Myristoyl-RYRRLILEIWRR) it is 6.
Still for that read-out and setting: then pCAP281 (Myristoyl-RDFILFIRRLGRR), with 3.
For the substance pCAP282 (Myristoyl-RRPVAPDLRHTIHIPPER), in the assay with Mut-p53, the “PCR, activity score” value was determined as 3; the “Conformation, activity score” value is on record as 4; the “Activity Score” value was 43.
As for pCAP283 (RRPADQISYLHPPER), the “Activity Score” value with Mut-p53 is recorded as 0.
Same read-out and setting: the figure for pCAP284 (Myristoyl-RHDTHNAHIRR) is 6; for pCAP285 (RRDIIRHNAHS) it is 4.
On the same count and under the same terms, the figure for pCAP286 (HDFHDYLERR) is 4; for pCAP287 (RDFERTIVDI) it is 8.
Still for that read-out and setting: the figure for pCAP288 (THDFDRLLRIRRR) is 6; for pCAP289 (RHNHIRPDNQ) it is 6.
pCAP290 (RYKEPRITPRE): the “Activity Score” value in the assay with Mut-p53 came out at 6.
As to pCAP291 (DLQYDFPRIRR), the “Activity Score” value with Mut-p53 came to 0.
As for pCAP292 (YDELYQKEDPHRRR), the “Activity Score” value in the assay with Mut-p53 was determined as 0.
Still for that read-out and setting: then pCAP293 (RRIRIDPQHD), with 2; and pCAP294 (FKPERFPQNDRRR), with 0; and pCAP295 (LDLYHPRERR), with 3.
The same measure, in the same setting: the figure for pCAP296 (RPADRIRR) is 0; for pCAP297 (HDFDPRYRDRR) it is 0.
For pCAP298 (RRIRDPLGNEHE), in the assay on Mut-p53, the “Activity Score” value turned out to be 3.
pCAP299 (ILQPDFLIRPE): the “Activity Score” value with Mut-p53 is given as 2.
As for pCAP300 (RIRRDPDSPLPHPE), in the assay on Mut-p53, the “Activity Score” value turned out to be 0.
On the same count and under the same terms, then pCAP301 (Myristoyl-IRGRIRIIRRIR), with 12; and pCAP302 (LRIEPIRIR), with 6; and pCAP303 (IVEFRIRR), with 3.
The same measure, in the same setting: then pCAP304 (Myristoyl-RRIRILMFLIGCGRV), with 0; and pCAP305 (IREFDPRRIR), with 4; and pCAP306 (Myristoyl-RLIRIRILM), with 6.
Regarding pCAP307 (HDPRIIRIR), the “Activity Score” value with Mut-p53 is reported as 2.
As to “pCAP308 (Myristoyl-RRICRFIRICRVR; cysteine pairing not given here)”, in the assay on Mut-p53, the “PCR, activity score” value amounted to 6 and the “Activity Score” value was determined as 40.
Consider pCAP309 (HPHVILPRIRIRIR), for which the “Activity Score” value in the assay on Mut-p53 was 0.
Same read-out and setting: the figure for pCAP310 (RLRCLLLLIGRVGRR) is 4.
The same measure, in the same setting: the figure for pCAP311 (EIHTIHLLPERR) is 0.
With pCAP312 (RRPRIPDYIL), in the assay with Mut-p53, the “Activity Score” value came out at 3.
Same read-out and setting: the figure for pCAP313 (Myristoyl-RRREILHPEFRILYE) is 8; for pCAP314 (RSTPHIHEFIRR) it is 3; for pCAP315 (LHFSHIDRR) it is 9.
Same read-out and setting: then pCAP316 (Myristoyl-DIHTIHLPDTHRR), with 7.
As to pCAP317 (RRDIHTIHPFYQ), in the assay with Mut-p53, the “PCR, activity score” value was 3; the “Conformation, activity score” value is reported as 5; the “Activity Score” value was 43.
Regarding pCAP318 (RPEFHSFHPIYERR), the “Activity Score” value in the assay with Mut-p53 is listed as 6.
Regarding pCAP319 (SHDFYPHWMRERIR), the “Activity Score” value in the assay with Mut-p53 amounted to 3.
For pCAP320 (EPSHPRSRYPRTF), in the assay on Mut-p53, the “Activity Score” value turned out to be 0.
Same read-out and setting: the figure for pCAP321 (RNIIIRDFIHFSHIDR) is 0.
The same measure, in the same setting: then “pCAP322 (RRIRDPQIK(Myristoyl)LEIHFSHID; not fully specified; printed as RRIRDPQIK-myrLEIHFSHID)”, with 0.
On the same count and under the same terms, the figure for pCAP323 (Myristoyl-DLHTIHIPRDRR) is 0.
In the case of pCAP324 (SHDFPHREPRPERR), the “Activity Score” value with Mut-p53 is 0.
Consider pCAP325 (Myristoyl-RRIRDPRILLLHFD), for which, in the assay on Mut-p53, the “PCR, activity score” value was 6; the “Conformation, activity score” value is 4; the “Activity Score” value is on record as 61.
The corresponding values for pCAP326 (Myristoyl-RRHNAHHSTPHPDDR) are 4, 3 and 53.
